Data published in the kinase profiling compilation of Christmann-Franck et al. (2016).

Columns and labels:
Assay in all cases: radiometric filter-binding kinase assay, Kinase HotSpot
Details in all cases: compound 0.5 µM; ATP 10 µM
ACVR1 (human) = ACVR1 (human) (UniProt Q04771)
ACVR1B (human) = ACVR1B (human) (UniProt P36896)
ADRBK1 (human) = ADRBK1 (human) (UniProt P25098)
AURKC (human) = AURKC (human) (UniProt Q9UQB9)
BMX (human) = BMX (human) (UniProt P51813)
BRAF (human) = BRAF (human) (UniProt P15056)
CAMK1 (human) = CAMK1 (human) (UniProt Q14012)
CAMK1 (human), sequence (Q14012 whole entry, looked up): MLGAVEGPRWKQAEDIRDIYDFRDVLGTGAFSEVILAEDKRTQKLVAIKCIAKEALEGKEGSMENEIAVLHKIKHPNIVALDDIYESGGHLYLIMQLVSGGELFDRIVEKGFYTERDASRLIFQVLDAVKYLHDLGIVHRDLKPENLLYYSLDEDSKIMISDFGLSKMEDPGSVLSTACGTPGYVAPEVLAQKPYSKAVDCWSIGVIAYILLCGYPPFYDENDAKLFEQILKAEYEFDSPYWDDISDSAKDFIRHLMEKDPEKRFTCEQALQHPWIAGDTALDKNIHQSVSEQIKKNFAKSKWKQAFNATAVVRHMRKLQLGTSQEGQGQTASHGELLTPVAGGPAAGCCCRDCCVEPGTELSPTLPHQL

CDK1 CCNB1 (human) = CDK1 CCNB1 (human) (UniProt P06493+P14635)
CDK1 CCNB1 (human), sequence (P06493 whole entry, looked up): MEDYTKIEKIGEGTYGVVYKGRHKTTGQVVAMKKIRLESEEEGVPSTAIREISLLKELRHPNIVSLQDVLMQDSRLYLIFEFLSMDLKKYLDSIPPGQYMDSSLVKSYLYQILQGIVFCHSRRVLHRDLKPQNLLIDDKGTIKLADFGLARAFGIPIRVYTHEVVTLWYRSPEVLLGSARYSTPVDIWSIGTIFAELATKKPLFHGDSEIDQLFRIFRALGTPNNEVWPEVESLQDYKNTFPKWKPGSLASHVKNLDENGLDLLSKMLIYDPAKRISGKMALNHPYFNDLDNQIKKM
CDK1 CCNB1 (human), sequence (P14635 whole entry, looked up): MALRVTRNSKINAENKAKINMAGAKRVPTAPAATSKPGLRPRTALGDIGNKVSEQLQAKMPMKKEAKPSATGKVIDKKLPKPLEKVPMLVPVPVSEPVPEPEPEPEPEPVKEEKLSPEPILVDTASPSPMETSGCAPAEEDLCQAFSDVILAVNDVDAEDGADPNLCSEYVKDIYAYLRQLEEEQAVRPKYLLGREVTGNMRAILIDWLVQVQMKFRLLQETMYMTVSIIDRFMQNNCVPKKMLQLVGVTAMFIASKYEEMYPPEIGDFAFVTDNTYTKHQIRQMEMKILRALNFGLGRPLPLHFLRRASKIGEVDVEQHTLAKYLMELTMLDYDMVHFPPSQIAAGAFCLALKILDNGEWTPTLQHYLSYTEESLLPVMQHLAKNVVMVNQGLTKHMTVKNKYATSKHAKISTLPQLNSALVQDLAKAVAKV

CSNK2A2 (human) = CSNK2A2 (human) (UniProt P19784)
CSNK2A2 (human), sequence (P19784 whole entry, looked up): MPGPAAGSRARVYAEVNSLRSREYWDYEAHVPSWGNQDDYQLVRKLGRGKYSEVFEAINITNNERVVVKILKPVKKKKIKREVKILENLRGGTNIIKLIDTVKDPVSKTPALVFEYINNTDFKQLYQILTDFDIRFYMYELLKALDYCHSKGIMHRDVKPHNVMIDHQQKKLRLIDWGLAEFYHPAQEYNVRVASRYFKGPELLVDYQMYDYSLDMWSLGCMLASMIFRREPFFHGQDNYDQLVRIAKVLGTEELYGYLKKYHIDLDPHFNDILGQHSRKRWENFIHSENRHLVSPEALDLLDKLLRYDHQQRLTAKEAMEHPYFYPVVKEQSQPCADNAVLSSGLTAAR

DAPK1 (human) = DAPK1 (human) (UniProt P53355)
DDR2 (human) = DDR2 (human) (UniProt Q16832)
DYRK2 (human) = DYRK2 (human) (UniProt Q92630)
EPHA5 (human) = EPHA5 (human) (UniProt P54756)
EPHA7 (human) = EPHA7 (human) (UniProt Q15375)
FLT1 (human) = FLT1 (human) (UniProt P17948)
FLT3 (human) = FLT3 (human) (UniProt P36888)
FYN (human) = FYN (human) (UniProt P06241)
GSK3A (human) = GSK3A (human) (UniProt P49840)
GSK3A (human), sequence (P49840 whole entry, looked up): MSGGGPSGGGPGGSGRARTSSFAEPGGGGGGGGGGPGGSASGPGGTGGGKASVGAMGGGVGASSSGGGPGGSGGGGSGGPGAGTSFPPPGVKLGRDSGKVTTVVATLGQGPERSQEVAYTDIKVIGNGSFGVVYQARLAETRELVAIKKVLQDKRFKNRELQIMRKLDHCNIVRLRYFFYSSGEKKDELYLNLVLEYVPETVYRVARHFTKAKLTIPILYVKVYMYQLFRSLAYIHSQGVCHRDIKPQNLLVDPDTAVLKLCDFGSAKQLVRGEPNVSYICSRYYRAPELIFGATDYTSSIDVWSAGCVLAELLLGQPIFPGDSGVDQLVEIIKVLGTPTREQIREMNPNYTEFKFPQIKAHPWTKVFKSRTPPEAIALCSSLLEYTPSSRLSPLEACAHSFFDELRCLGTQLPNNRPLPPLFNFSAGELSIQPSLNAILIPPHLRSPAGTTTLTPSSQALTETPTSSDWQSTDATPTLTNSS

GSK3B (human) = GSK3B (human) (UniProt P49841)
GSK3B (human), sequence (P49841 whole entry, looked up): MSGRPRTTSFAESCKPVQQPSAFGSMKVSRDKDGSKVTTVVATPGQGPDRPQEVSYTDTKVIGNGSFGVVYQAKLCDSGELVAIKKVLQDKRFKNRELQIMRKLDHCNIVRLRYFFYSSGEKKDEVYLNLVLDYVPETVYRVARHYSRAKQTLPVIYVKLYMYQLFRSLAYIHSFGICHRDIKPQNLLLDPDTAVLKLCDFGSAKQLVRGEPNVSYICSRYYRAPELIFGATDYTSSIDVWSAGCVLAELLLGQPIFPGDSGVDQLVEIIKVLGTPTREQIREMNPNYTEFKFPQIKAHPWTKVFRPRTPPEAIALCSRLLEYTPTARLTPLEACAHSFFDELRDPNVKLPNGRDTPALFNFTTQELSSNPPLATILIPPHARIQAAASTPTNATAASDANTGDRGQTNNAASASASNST

HIPK4 (human) = HIPK4 (human) (UniProt Q8NE63)
IKBKB (human) = IKBKB (human) (UniProt O14920)
IKBKE (human) = IKBKE (human) (UniProt Q14164)
LRRK2 (human) = LRRK2 (human) (UniProt Q5S007)
MAP3K10 (human) = MAP3K10 (human) (UniProt Q02779)
MAP3K3 (human) = MAP3K3 (human) (UniProt Q99759)
MAP3K3 (human), sequence (Q99759 whole entry, looked up): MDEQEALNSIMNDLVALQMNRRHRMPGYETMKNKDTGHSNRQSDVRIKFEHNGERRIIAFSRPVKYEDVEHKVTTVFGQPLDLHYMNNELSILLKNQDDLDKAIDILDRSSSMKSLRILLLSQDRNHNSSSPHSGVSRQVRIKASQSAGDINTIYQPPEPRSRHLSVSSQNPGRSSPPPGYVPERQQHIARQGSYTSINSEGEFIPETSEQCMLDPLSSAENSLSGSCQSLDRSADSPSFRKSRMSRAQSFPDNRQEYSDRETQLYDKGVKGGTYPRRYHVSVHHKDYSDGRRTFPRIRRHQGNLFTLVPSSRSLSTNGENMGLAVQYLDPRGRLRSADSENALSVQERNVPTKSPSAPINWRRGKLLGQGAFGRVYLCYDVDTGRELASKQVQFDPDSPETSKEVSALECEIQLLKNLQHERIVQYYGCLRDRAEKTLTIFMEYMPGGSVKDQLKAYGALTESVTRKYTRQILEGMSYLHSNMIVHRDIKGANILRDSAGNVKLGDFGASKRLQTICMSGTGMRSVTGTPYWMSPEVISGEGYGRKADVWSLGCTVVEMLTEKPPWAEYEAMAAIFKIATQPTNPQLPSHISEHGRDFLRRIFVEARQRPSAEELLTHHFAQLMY

MAPKAPK2 (human) = MAPKAPK2 (human) (UniProt P49137)
MAPKAPK2 (human), sequence (P49137 whole entry, looked up): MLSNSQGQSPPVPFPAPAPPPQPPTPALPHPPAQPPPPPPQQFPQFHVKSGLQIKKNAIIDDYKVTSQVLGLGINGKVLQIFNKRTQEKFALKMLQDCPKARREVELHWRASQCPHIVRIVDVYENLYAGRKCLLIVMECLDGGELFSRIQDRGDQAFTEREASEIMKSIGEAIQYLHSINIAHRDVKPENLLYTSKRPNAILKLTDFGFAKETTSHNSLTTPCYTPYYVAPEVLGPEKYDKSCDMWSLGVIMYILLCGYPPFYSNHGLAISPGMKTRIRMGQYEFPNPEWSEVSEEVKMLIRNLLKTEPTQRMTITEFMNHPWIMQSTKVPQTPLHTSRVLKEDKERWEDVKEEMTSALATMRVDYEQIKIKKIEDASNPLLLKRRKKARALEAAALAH

MST4 (human) = MST4 (human) (UniProt Q9P289)
MYLK2 (human) = MYLK2 (human) (UniProt Q9H1R3)
PAK4 (human) = PAK4 (human) (UniProt O96013)
PAK4 (human), sequence (O96013 whole entry, looked up): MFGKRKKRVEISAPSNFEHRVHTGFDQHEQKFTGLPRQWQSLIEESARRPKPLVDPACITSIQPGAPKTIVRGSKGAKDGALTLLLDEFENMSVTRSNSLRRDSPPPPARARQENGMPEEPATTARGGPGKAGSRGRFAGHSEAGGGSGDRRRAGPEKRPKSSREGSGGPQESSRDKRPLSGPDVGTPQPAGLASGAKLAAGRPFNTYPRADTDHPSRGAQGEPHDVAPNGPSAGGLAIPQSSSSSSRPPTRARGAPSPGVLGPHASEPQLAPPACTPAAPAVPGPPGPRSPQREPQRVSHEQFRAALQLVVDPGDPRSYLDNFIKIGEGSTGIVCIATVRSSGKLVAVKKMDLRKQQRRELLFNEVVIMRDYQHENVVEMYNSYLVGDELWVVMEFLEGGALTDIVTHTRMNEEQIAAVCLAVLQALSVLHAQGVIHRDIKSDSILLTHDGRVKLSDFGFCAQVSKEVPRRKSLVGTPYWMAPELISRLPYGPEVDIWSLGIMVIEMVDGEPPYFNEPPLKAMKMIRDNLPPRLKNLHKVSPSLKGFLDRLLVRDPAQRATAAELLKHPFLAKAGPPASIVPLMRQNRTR

PHKG1 (human) = PHKG1 (human) (UniProt Q16816)
PLK3 (human) = PLK3 (human) (UniProt Q9H4B4)
PRKCB1 (human) = PRKCB1 (human) (UniProt P05771)
PTK6 (human) = PTK6 (human) (UniProt Q13882)
ROCK1 (human) = ROCK1 (human) (UniProt Q13464)
STK16 (human) = STK16 (human) (UniProt O75716)
STK33 (human) = STK33 (human) (UniProt Q9BYT3)
YES1 (human) = YES1 (human) (UniProt P07947)
ZAP70 (human) = ZAP70 (human) (UniProt P43403)
FES (human) = FES (human) (UniProt P07332)

AURKC (human), sequence (Q9UQB9 whole entry, looked up): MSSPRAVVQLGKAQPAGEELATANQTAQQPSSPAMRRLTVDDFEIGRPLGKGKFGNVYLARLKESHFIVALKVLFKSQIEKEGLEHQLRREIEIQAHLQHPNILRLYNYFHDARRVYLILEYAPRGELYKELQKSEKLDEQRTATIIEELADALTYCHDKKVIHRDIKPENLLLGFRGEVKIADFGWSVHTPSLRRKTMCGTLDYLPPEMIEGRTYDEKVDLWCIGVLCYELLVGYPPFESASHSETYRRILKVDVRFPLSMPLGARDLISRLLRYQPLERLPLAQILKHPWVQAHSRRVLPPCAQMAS
ADRBK1 (human), sequence (P25098 whole entry, looked up): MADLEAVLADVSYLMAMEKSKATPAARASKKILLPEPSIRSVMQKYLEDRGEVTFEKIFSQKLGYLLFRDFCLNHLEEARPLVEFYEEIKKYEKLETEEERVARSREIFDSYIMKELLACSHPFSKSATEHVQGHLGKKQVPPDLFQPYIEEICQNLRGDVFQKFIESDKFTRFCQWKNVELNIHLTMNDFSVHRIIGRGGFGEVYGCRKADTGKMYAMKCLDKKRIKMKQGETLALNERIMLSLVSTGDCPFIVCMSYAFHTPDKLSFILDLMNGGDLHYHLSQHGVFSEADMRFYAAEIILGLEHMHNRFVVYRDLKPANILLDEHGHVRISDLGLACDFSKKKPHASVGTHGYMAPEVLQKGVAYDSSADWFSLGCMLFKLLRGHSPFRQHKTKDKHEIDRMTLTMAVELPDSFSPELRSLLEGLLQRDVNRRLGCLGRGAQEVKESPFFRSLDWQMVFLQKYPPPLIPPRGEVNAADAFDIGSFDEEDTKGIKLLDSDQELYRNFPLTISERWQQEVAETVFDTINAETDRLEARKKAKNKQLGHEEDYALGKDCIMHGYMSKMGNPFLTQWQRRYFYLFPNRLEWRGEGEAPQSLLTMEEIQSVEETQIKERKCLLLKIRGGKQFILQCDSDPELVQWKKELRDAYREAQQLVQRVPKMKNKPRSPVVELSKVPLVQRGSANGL

Structure (SMILES): COc1ccc(COc2ccc(Cc3cnc(N)nc3N)cc2OC)cc1
- residual activity (ACVR1 (human)): 100%
- residual activity (ACVR1B (human)): 97.8%
- residual activity (ADRBK1 (human)): 96.1%
- residual activity (AURKC (human)): 97.5%
- residual activity (BMX (human)): 93.4%
- residual activity (BRAF (human)): 99%
- residual activity (CAMK1 (human)): 103%
- residual activity (CDK1 CCNB1 (human)): 91.3%
- residual activity (CSNK2A2 (human)): 97.4%
- residual activity (DAPK1 (human)): 102%
- residual activity (DDR2 (human)): 99.6%
- residual activity (DYRK2 (human)): 105%
- residual activity (EPHA5 (human)): 111%
- residual activity (EPHA7 (human)): 101%
- residual activity (FLT1 (human)): 99.7%
- residual activity (FLT3 (human)): 103%
- residual activity (FYN (human)): 102%
- residual activity (GSK3A (human)): 108%
- residual activity (GSK3B (human)): 97.8%
- residual activity (HIPK4 (human)): 97.7%
- residual activity (IKBKB (human)): 99.9%
- residual activity (IKBKE (human)): 96.7%
- residual activity (LRRK2 (human)): 92.6%
- residual activity (MAP3K10 (human)): 96.4%
- residual activity (MAP3K3 (human)): 97.8%
- residual activity (MAPKAPK2 (human)): 103%
- residual activity (MST4 (human)): 95.5%
- residual activity (MYLK2 (human)): 104%
- residual activity (PAK4 (human)): 101%
- residual activity (PHKG1 (human)): 95.3%
- residual activity (PLK3 (human)): 95.9%
- residual activity (PRKCB1 (human)): 102%
- residual activity (PTK6 (human)): 96.1%
- residual activity (ROCK1 (human)): 100%
- residual activity (STK16 (human)): 106%
- residual activity (STK33 (human)): 96.4%
- residual activity (YES1 (human)): 94.8%
- residual activity (ZAP70 (human)): 94.3%

Structure (SMILES): Nc1cccc(-c2cc3c(Oc4cccc(O)c4)ncnc3[nH]2)c1
- residual activity (ACVR1 (human)): 183%
- residual activity (ACVR1B (human)): 122%
- residual activity (ADRBK1 (human)): 108%
- residual activity (AURKC (human)): 77.7%
- residual activity (BMX (human)): 24.3%
- residual activity (BRAF (human)): 53.2%
- residual activity (CAMK1 (human)): 112%
- residual activity (CDK1 CCNB1 (human)): 98.9%
- residual activity (CSNK2A2 (human)): 96.5%
- residual activity (DAPK1 (human)): 89.1%
- residual activity (DDR2 (human)): 29.3%
- residual activity (DYRK2 (human)): 76.9%
- residual activity (EPHA5 (human)): 41.7%
- residual activity (EPHA7 (human)): 77.2%
- residual activity (FES (human)): 73.8%
- residual activity (FLT1 (human)): 8.56%
- residual activity (FLT3 (human)): 30.7%
- residual activity (FYN (human)): 7.92%
- residual activity (GSK3A (human)): 41.6%
- residual activity (GSK3B (human)): 48.1%
- residual activity (HIPK4 (human)): 103%
- residual activity (IKBKB (human)): 90.8%
- residual activity (IKBKE (human)): 88.1%
- residual activity (LRRK2 (human)): 93.4%
- residual activity (MAP3K10 (human)): 79.2%
- residual activity (MAP3K3 (human)): 96.4%
- residual activity (MAPKAPK2 (human)): 108%
- residual activity (MST4 (human)): 83.8%
- residual activity (MYLK2 (human)): 29.9%
- residual activity (PAK4 (human)): 99.8%
- residual activity (PHKG1 (human)): 81.5%
- residual activity (PLK3 (human)): 95.7%
- residual activity (PRKCB1 (human)): 113%
- residual activity (PTK6 (human)): 11.1%
- residual activity (ROCK1 (human)): 94.1%
- residual activity (STK16 (human)): 70.4%
- residual activity (STK33 (human)): 80.3%
- residual activity (YES1 (human)): 6.05%
- residual activity (ZAP70 (human)): 97.5%

Structure (SMILES): c1ccc(-c2n[nH]c3c2oc2ccccc23)cc1
- residual activity (ACVR1 (human)): 99.4%
- residual activity (ACVR1B (human)): 96.6%
- residual activity (ADRBK1 (human)): 104%
- residual activity (AURKC (human)): 96.7%
- residual activity (BMX (human)): 106%
- residual activity (BRAF (human)): 96.9%
- residual activity (CAMK1 (human)): 85.2%
- residual activity (CDK1 CCNB1 (human)): 87.7%
- residual activity (CSNK2A2 (human)): 85.6%
- residual activity (DAPK1 (human)): 71%
- residual activity (DDR2 (human)): 96%
- residual activity (DYRK2 (human)): 95.4%
- residual activity (EPHA5 (human)): 92.1%
- residual activity (EPHA7 (human)): 104%
- residual activity (FES (human)): 114%
- residual activity (FLT1 (human)): 94.5%
- residual activity (FLT3 (human)): 12.1%
- residual activity (FYN (human)): 104%
- residual activity (GSK3A (human)): 91.4%
- residual activity (GSK3B (human)): 105%
- residual activity (HIPK4 (human)): 103%
- residual activity (IKBKB (human)): 92.2%
- residual activity (IKBKE (human)): 101%
- residual activity (LRRK2 (human)): 91.4%
- residual activity (MAP3K10 (human)): 91.4%
- residual activity (MAP3K3 (human)): 94.7%
- residual activity (MAPKAPK2 (human)): 99.1%
- residual activity (MST4 (human)): 90.6%
- residual activity (MYLK2 (human)): 66.6%
- residual activity (PAK4 (human)): 111%
- residual activity (PHKG1 (human)): 91.5%
- residual activity (PLK3 (human)): 99.2%
- residual activity (PRKCB1 (human)): 103%
- residual activity (ROCK1 (human)): 99.1%
- residual activity (STK16 (human)): 89.1%
- residual activity (STK33 (human)): 96.5%
- residual activity (YES1 (human)): 86.1%
- residual activity (ZAP70 (human)): 89%

Structure (SMILES): CC[n+]1c(/C=C/N(C)c2ccccc2)n(-c2ccccc2)c2ccc(-c3nc4ccccc4s3)cc21
- residual activity (ACVR1 (human)): 103%
- residual activity (ACVR1B (human)): 110%
- residual activity (ADRBK1 (human)): 87.5%
- residual activity (AURKC (human)): 91.3%
- residual activity (BMX (human)): 108%
- residual activity (BRAF (human)): 100%
- residual activity (CAMK1 (human)): 94.4%
- residual activity (CDK1 CCNB1 (human)): 105%
- residual activity (CSNK2A2 (human)): 105%
- residual activity (DAPK1 (human)): 74.7%
- residual activity (DDR2 (human)): 97.4%
- residual activity (DYRK2 (human)): 105%
- residual activity (EPHA5 (human)): 100%
- residual activity (EPHA7 (human)): 97.9%
- residual activity (FES (human)): 101%
- residual activity (FLT1 (human)): 94.1%
- residual activity (FLT3 (human)): 98.6%
- residual activity (FYN (human)): 99.2%
- residual activity (GSK3A (human)): 103%
- residual activity (GSK3B (human)): 105%
- residual activity (HIPK4 (human)): 102%
- residual activity (IKBKB (human)): 98.6%
- residual activity (IKBKE (human)): 94.7%
- residual activity (LRRK2 (human)): 95.5%
- residual activity (MAP3K10 (human)): 103%
- residual activity (MAP3K3 (human)): 109%
- residual activity (MAPKAPK2 (human)): 97.2%
- residual activity (MST4 (human)): 93.7%
- residual activity (MYLK2 (human)): 95.8%
- residual activity (PAK4 (human)): 109%
- residual activity (PHKG1 (human)): 96.1%
- residual activity (PLK3 (human)): 104%
- residual activity (PRKCB1 (human)): 102%
- residual activity (PTK6 (human)): 90.2%
- residual activity (ROCK1 (human)): 98.1%
- residual activity (STK16 (human)): 98.4%
- residual activity (STK33 (human)): 89.4%
- residual activity (YES1 (human)): 94.9%
- residual activity (ZAP70 (human)): 95.5%

Structure (SMILES): O=S(=O)(c1cccc2cnccc12)N1CCCNCC1
- residual activity (ACVR1 (human)): 96.5%
- residual activity (ACVR1B (human)): 100%
- residual activity (ADRBK1 (human)): 105%
- residual activity (AURKC (human)): 97.4%
- residual activity (BMX (human)): 104%
- residual activity (BRAF (human)): 97.7%
- residual activity (CAMK1 (human)): 99.4%
- residual activity (CDK1 CCNB1 (human)): 92.7%
- residual activity (CSNK2A2 (human)): 91.9%
- residual activity (DAPK1 (human)): 79%
- residual activity (DDR2 (human)): 92.2%
- residual activity (DYRK2 (human)): 97.9%
- residual activity (EPHA5 (human)): 90.5%
- residual activity (EPHA7 (human)): 97.3%
- residual activity (FES (human)): 121%
- residual activity (FLT1 (human)): 90%
- residual activity (FLT3 (human)): 103%
- residual activity (FYN (human)): 106%
- residual activity (GSK3B (human)): 102%
- residual activity (HIPK4 (human)): 103%
- residual activity (LRRK2 (human)): 94.2%
- residual activity (MAP3K10 (human)): 88.3%
- residual activity (MAP3K3 (human)): 89.3%
- residual activity (MAPKAPK2 (human)): 101%
- residual activity (MST4 (human)): 90%
- residual activity (MYLK2 (human)): 99.6%
- residual activity (PHKG1 (human)): 90.8%
- residual activity (PLK3 (human)): 102%
- residual activity (PRKCB1 (human)): 94.6%
- residual activity (PTK6 (human)): 96.1%
- residual activity (ROCK1 (human)): 60.2%
- residual activity (STK16 (human)): 91.7%
- residual activity (STK33 (human)): 90.3%
- residual activity (YES1 (human)): 96.5%
- residual activity (ZAP70 (human)): 108%
